“Also recorded” adds a separate entry of the source.
Assays:
α-glucosidase = α-glucosidase (Saccharomyces cerevisiae, UniProt P53341); assay: Assay for α-glucosidase inhibitory activity; format: biochemical; settings: for inhibitory effect against α-glucosidase compared with acarbose, in words: versus the clinical α-glucosidase inhibitor acarbose
Procedure: All of the tests for α-glucosidase inhibitory activity were according to a previously described method. […] The reaction was monitored spectrophotometrically by measuring the absorbance at 400 nm for 1-min intervals. […] The IC50 values of the compounds were calculated by nonlinear regression analysis and expressed as the mean ± SD of two distinct experiments. Kinetic parameters were determined using the Lineweaver-Burk double-reciprocal plot method at increasing concentrations of substrates and inhibitors.

Sequence of α-glucosidase (P53341 whole entry): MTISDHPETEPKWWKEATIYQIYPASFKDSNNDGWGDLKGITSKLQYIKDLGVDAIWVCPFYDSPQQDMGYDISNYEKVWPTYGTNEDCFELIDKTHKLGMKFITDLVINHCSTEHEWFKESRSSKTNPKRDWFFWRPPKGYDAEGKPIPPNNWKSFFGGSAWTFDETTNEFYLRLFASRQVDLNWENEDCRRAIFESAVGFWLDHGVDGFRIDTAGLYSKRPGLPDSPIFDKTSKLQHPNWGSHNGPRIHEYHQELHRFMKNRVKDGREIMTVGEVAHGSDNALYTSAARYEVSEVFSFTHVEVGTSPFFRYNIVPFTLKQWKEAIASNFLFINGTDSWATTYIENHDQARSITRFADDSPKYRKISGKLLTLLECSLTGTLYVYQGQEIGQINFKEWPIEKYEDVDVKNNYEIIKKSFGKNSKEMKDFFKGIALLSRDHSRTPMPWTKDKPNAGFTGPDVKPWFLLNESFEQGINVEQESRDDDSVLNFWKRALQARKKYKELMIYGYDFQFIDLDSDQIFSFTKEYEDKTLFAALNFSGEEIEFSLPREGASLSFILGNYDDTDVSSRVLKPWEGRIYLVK

SMILES	inhibition type of α-glucosidase (kinetic analysis) (α-glucosidase; Lineweaver-Burk plot method)	inhibitory effect against α-glucosidase compared with acarbose, in words (α-glucosidase)	melting point [°C]	α-glucosidase inhibitory activity, in words (α-glucosidase)
CC=Cc1cc2c(o1)C(=O)C(C)(OC(=O)c1c(C)cc(O)cc1O)C(O)C2 (stereo not shown) [Compound 1, aspergifuranone]	noncompetitive inhibitor; also recorded: noncompetitive inhibition	more potent inhibitory effects	121.1 to 121.6	–
COC1(C)OC(=O)c2c(cc(O)c(C)c2O)C1O (stereo not shown) [Compound 2]	–	more potent inhibitory effects	174.4 to 174.9	moderate inhibitory activities
COC1(C)OC(=O)c2c(cc(O)c(C)c2O)C1=O (stereo not shown) [Compound 3]	–	–	134.2 to 134.8	–
CCC[C@@]1(O)OC(=O)c2c1cc(O)c(O)c2C [Compound 4, (R)-3-demethylpurpurester A]	–	–	201.2 to 201.9	–
Cc1c(O)cc2c(c1O)C(=O)O[C@@H]2[C@H](C)O [Compound 6, pestaphthalides A]	–	more potent inhibitory effects	–	moderate inhibitory activities

From publication PMC4446620, “Bioactive Metabolites from Mangrove Endophytic Fungus Aspergillus sp. 16-5B” (Marine Drugs, 2015)
